We go through one compound from US10544113B2 (priority 2016, dated 2020).

The test system of test [1] is DOR. As to the kind of experiment: cAMP assay (adenylyl cyclase inhibition) in HEK-DOR cells. As to conditions: in the presence of naloxone (20 nM). The class given is cell-based. As to the method: (§1) Human embryonic kidney 293 (HEK-293) cells constitutively expressing MOR (HEK-MOR) and DOR (HEK-DOR) (kindly provided by Dr. Ping-Yee Law, University of Minnesota, USA) were cultured in high-glucose Dulbecco's modified Eagle's medium (DMEM, GIBCO) supplemented with 400 μg/mL G418 (Sigma), 2 mM L-glutamine and P/S/F (100 units/mL penicillin, 100 μg/mL streptomycin, 10% fetal bovine serum). Chinese hamster ovary (CHO)-K1 cells, stably expressing hMOR and Gα15 (CHO-K1/MOR/Gα15), were cultured in F12 medium (GIBCO) supplemented with 10 μg/mL Hygromycin B (Invivogen), 20 μg/mL Zeocin (Invivogen) P/S/F (100 units/mL penicillin, 100 μg/mL streptomycin, 10% fetal bovine serum). The cultures were incubated at 37° C. in a humidified 5% CO2 incubator.
Briefly, 2000 HEK-MOR cells or HEK-DOR cells were plated in 10 μL/well of DMEM in 96-well solid bottom white plates and 10 μL/well compound in HBSS in the presence with 1 μM forskolin and 100 μM 3-isobutyl-1-methylxanthine (IBMX). After 30 minutes of incubation at room temperature, 10 μL/well of labeled d2-cAMP and 10 μL/well of anti-cAMP antibody (both diluted in lysis buffer) were added to each well. Two hours later, plates were measured using the FlexStationIII (Molecular Devices Corp.) with excitation at 330 nm and emissions of 620 nm and 665 nm.
To characterize of novel opioid receptor AAMs, the activity and selectivity of compound 58 were tested by inhibiting adenylyl cyclase activity (i.e., cAMP assay).
Opoid receptors inhibit adenylyl cyclase activity through Gi/o family of heterotrimeric G proteins. A cAMP-accumulation assay was performed to determine whether opioid receptor AAMs affect a G protein-dependent signaling pathway.

Test [2] has as its target MOR (Rattus norvegicus, UniProt P33535). As to the kind of experiment: cAMP assay (adenylyl cyclase inhibition) in HEK-MOR cells. Type of test: cell-based. As to the method: as §1
Briefly, 2000 HEK-MOR cells or HEK-DOR cells were plated in 10 μL/well of DMEM in 96-well solid bottom white plates and 10 μL/well compound in HBSS in the presence with 1 μM forskolin and 100 μM 3-isobutyl-1-methylxanthine (IBMX). After 30 minutes of incubation at room temperature, 10 μL/well of labeled d2-cAMP and 10 μL/well of anti-cAMP antibody (both diluted in lysis buffer) were added to each well. Two hours later, plates were measured using the FlexStationIII (Molecular Devices Corp.) with excitation at 330 nm and emissions of 620 nm and 665 nm. […]

MOR, sequence (P33535 whole entry, looked up): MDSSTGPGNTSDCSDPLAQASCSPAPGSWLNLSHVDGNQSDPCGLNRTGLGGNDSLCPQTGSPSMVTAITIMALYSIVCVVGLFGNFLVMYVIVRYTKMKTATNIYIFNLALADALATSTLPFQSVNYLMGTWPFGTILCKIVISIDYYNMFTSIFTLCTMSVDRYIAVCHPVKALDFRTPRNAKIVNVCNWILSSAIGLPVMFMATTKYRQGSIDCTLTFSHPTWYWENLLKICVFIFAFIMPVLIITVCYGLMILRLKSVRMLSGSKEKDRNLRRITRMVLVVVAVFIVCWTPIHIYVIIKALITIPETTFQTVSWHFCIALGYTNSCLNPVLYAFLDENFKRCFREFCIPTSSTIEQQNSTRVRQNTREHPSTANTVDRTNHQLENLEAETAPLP

As to `Cc1cc(C(=O)O)ccc1N1C(=O)CSC1c1ccc(F)cc1` (stereo not drawn), the “effect on adenylyl cyclase activity” value in test [1] is recorded as “produced no effect”. The “selectivity mu over delta opioid receptor” value in test [2] (HEK-MOR vs HEK-DOR, with naloxone (20 nM)) is given as “selective for mu-over delta-opioid receptors”. In test [2] (HEK-MOR, combined with naloxone (20 nM)), the “inhibition of adenylyl cyclase activity” value is “significantly inhibited adenylyl cyclase activity”.
